In brackets after ≈: the same amount, converted by molar mass. Read-outs that look alike come from different tables or passages of the source.

Here are results for 6 compounds from paper PMC9822072, “Synthesis and Structure–Activity Relationship of 2,6-Disubstituted Thiosemicarbazone Derivatives of Pyridine as Potential Antituberculosis Agents” (Materials, 2023).

Series [1] relates to Candida parapsilosis ATCC 22019. In words: Antifungal microdilution broth method. Particulars: Lodderomyces parapsilosis, ATCC22019; Mueller–Hinton broth with 2% glucose; read-out: MIC C. parapsilosis ATCC 22019. Type of series: cell-based. Here is the method: (§1) The antibacterial and antifungal activities of compounds 4–9 were screened by the microdilution broth method using Mueller–Hinton broth for the growth of bacteria and Mueller–Hinton broth with 2% glucose for the growth of fungi. The antimicrobial assays were carried out following a previous study. The MICs of the aforementioned derivatives were evaluated for the panel of reference microorganisms from the ATCC (American Type Culture Collection), including Gram-positive bacteria (Staphylococcus aureus ATCC 25923, Staphylococcus epidermidis ATCC 12228, Micrococcus luteus ATCC 10240, Bacillus subtilis ATCC 6633, and Bacillus cereus ATCC 10876), Gram-negative bacteria (Escherichia coli ATCC 25922, Proteus mirabilis ATCC 12453, Klebsiella pneumoniae ATCC 13883, and Pseudomonas aeruginosa ATCC 9027), and fungi (Candida albicans ATCC 102231 and Candida parapsilosis ATCC 22019) (LGC Standards, Teddington, Middlesex, UK). Vancomycin (VAN), ciprofloxacin (CIP), and fluconazole (FCZ) were used as standard drugs for comparison. Each experiment was performed in triplicate.

Series [2] has as its system Candida albicans ATCC 102231. Kind of series: Antifungal microdilution broth method. Format: cell-based. The conditions noted are these: ATCC102231, Mueller–Hinton broth with 2% glucose, read-out: MIC C. albicans ATCC 102231. Here is the method:
as §1
In general terms: Broth dilution looks for growth in wells or tubes with falling amounts of substance.

For series [3], the system named is M. tuberculosis H37Rv (standard strain). Kind of series: Tuberculostatic activity, twofold serial microdilution with Alamar Blue. Type of series: cell-based, Mycobacterium tuberculosis. Particulars: Mycobacterium tuberculosis, H37RV, 504 h, 21 days at 37 °C.
The subject of series [4] is HaCaT cells. In words: Cytotoxic activity, MTT method. Type of series: cell-based. The conditions noted are these: Homo sapiens, 72 h, 3 days of incubation. (Formazan colour is commonly taken as a measure of viable cells.)
In series [5] the test system is HaCaT cells. In words: Cytotoxic activity, sulforhodamine B method. Particulars: for IC50: Homo sapiens, 72 h, read-out: IC50-HaCaT SULF; for cytotoxicity against noncancer cells (in words): MTT and sulforhodamine B methods together. On the technique in general: The SRB assay estimates cell density from bound dye.
The subject of series [6] is Bacillus subtilis ATCC 6633. Kind of series: Antibacterial microdilution broth method. Format: cell-based. The protocol:
as §1

The test system of series [7] is Klebsiella pneumoniae ATCC 13883. In words: Antibacterial microdilution broth method. Format: cell-based. Here is the method:
as §1

Series [8] has as its system Bacillus cereus ATCC 10876. In words: Antibacterial microdilution broth method. Type of series: cell-based. The protocol: as §1
For series [9], the system named is Pseudomonas aeruginosa ATCC 9027. In words: Antibacterial microdilution broth method. Type of series: cell-based. Here is the method:
as §1

Series [10] deals with Micrococcus luteus ATCC 10240. Kind of series: Antibacterial microdilution broth method. Format: cell-based. The protocol:
as §1

In series [11] the test system is Proteus mirabilis ATCC 12453. Kind of series: Antibacterial microdilution broth method. Type of series: cell-based. Here is the method: as §1
The test system of series [12] is Staphylococcus aureus ATCC 25923. Kind of series: Antibacterial microdilution broth method. Type of series: cell-based. The conditions noted are these: Staphylococcus aureus. Here is the method: as §1
Series [13] deals with Escherichia coli ATCC 25922. In words: Antibacterial microdilution broth method. Format: cell-based. Here is the method:
as §1

In series [14] the test system is Staphylococcus epidermidis ATCC 12228. Kind of series: Antibacterial microdilution broth method. Format: cell-based. Particulars: Staphylococcus epidermidis. Here is the method:
as §1

The subject of series [15] is other pathogenic microorganisms. Also noted: method as in PMID 32061963, PMID 36013649. Particulars: cited from earlier work.
The subject of the next series is Mycobacterium strains. Details: method as in PMID 32061963, PMID 36013649. The conditions noted are these: cited from earlier work.
[16] abbreviates: ATCC6633, Mueller–Hinton broth, read-out: MIC B. subtilis ATCC 6633.
The mark [17] stands for this setting: ATCC13883, Mueller–Hinton broth, read-out: MIC K. pneumoniae ATCC 13883.
[18] abbreviates: ATCC10876, Mueller–Hinton broth, read-out: MIC B. cereus ATCC 10876.
Where [19] appears, read: ATCC9027, Mueller–Hinton broth, read-out: MIC P. aeruginosa ATCC 9027.
Setting [20] is: ATCC10240, Mueller–Hinton broth, read-out: MIC M. luteus ATCC 10240.
Setting [21] is: ATCC12453, Mueller–Hinton broth, read-out: MIC P. mirabilis ATCC 12453.
The mark [22] stands for this setting: ATCC25923, Mueller–Hinton broth, read-out: MIC S. aureus ATCC 25923.
The mark [23] stands for this setting: ATCC25922, Mueller–Hinton broth, read-out: MIC E. coli ATCC 25922.
[24] abbreviates: ATCC12228, Mueller–Hinton broth, read-out: MIC S. epidermidis ATCC 12228.

Broadly, the melting point is the temperature, or range, at which the solid turns liquid. In general, MIC refers to the least concentration at which growth counts as inhibited. The IC50 is the point on the concentration scale where inhibition reaches its midpoint. The compound `NC(=NNC(=S)N1CCOCC1)c1cccc(Oc2ccccc2)n1` [Compound 8, N’-(Morpholine-4-Carbonothioyl)-6-Phenoxypicolinohydrazonamide] had a melting point of 131 to 134 °C. Further, in series [1], the MIC was over 1000 µg/mL. Also, the MIC in series [2] was over 1000 µg/mL. This compound came in with an MIC in series [3] of 8 µg/mL (≈ 22.4 µM). Also, 0.57 µg/mL (≈ 1.59 µM) corresponded to half-maximal inhibition in the series on HaCaT cells [4] (IC50). In addition, in the series with HaCaT cells [5], the 50% inhibitory concentration (IC50) stood at 50 µg/mL (≈ 140 µM) and the “cytotoxicity against noncancer cells (in words)” value was “inhibited cell metabolic activity while maintaining cell viability”. Also, the minimal inhibitory concentration (MIC) in [6] (setting [16]) was over 1000 µg/mL. Further, in [7] (setting [17]), the minimum inhibitory concentration (MIC) was over 1000 µg/mL. The MIC in [8] (setting [18]) was over 1000 µg/mL. In addition, the MIC in series [9] (setting [19]) was over 1000 µg/mL. Further, the MIC in series [10] (setting [20]) was 125 µg/mL (≈ 350 µM). In addition, the MIC in series [11] (setting [21]) was over 1000 µg/mL. Also, in [12] (setting [22]), the MIC came to 250 µg/mL (≈ 699 µM). Moreover, in [13] (setting [23]), the minimum inhibitory concentration (MIC) was over 1000 µg/mL. For the same compound, in [14] (setting [24]), the MIC was determined as 31.3 µg/mL (≈ 87.6 µM).

`NC(=NNC(=S)N1CCCC1)c1cccc(Oc2ccccc2)n1` [Compound 9, 6-Phenoxy-N’-(Pyrrolidine-1-Carbonothioyl)Picolinohydrazonamide] came in with a melting point of 170 to 173 °C. The MIC in series [1] was 1000 µg/mL (≈ 2930 µM). Besides, the minimal inhibitory concentration (MIC) in series [2] was 1000 µg/mL (≈ 2930 µM). Moreover, inhibition of growth in series [3] (MIC) required 8 µg/mL (≈ 23.4 µM). In the series on HaCaT cells [4], half-maximal inhibition (IC50) required 0.06 µg/mL (≈ 0.176 µM). Also, in the series with HaCaT cells [5], the IC50 was 1.31 µg/mL (≈ 3.84 µM) and the “cytotoxicity against noncancer cells (in words)” value is given as “showed the same while losing cell viability”. In series [6] (setting [16]), the minimal inhibitory concentration (MIC) stood at 0.49 µg/mL (≈ 1.44 µM). Further, in [7] (setting [17]), the minimum inhibitory concentration (MIC) was over 1000 µg/mL. The MIC in series [8] (setting [18]) is 3.9 µg/mL (≈ 11.4 µM). In [9] (setting [19]), the MIC amounted to 1000 µg/mL (≈ 2930 µM). In addition, the MIC in [10] (setting [20]) is 0.49 µg/mL (≈ 1.44 µM). Moreover, in series [11] (setting [21]), the MIC was over 1000 µg/mL. Further, the minimum inhibitory concentration (MIC) in series [12] (setting [22]) was determined as 0.98 µg/mL (≈ 2.87 µM). The MIC in series [13] (setting [23]) is 1000 µg/mL (≈ 2930 µM). In addition, the MIC in series [14] (setting [24]) was determined as 0.49 µg/mL (≈ 1.44 µM).

For `OC(Cn1cncn1)(Cn1cncn1)c1ccc(F)cc1F` [FCZ, fluconazole, reference compound], the MIC in series [1] was found to be 1.95 µg/mL (≈ 6.37 µM); in [2], 0.98 µg/mL (≈ 3.2 µM).

Consider `NNC(=O)c1ccncc1` [INH, isoniazid, reference compound], for which the minimum inhibitory concentration (MIC) in series [3] amounted to 0.125 µg/mL (≈ 0.911 µM).

Turning to `N/C(=N\NC(=S)N1CCOCC1)c1cc(-c2ccccc2)ccn1` [MKG-1b], in [15], the “MIC other pathogenic microorganisms” value is 0.98 to 500 µg/mL. Besides, the “MIC toward Mycobacterium strains” value in the series on Mycobacterium strains was 3.1 µg/mL (≈ 9.08 µM).

Turning to `CN[C@H](CC(C)C)C(=O)N[C@H]1C(=O)N[C@@H](CC(N)=O)C(=O)N[C@H]2C(=O)N[C@H]3C(=O)N[C@H](C(=O)N[C@H](C(=O)O)c4cc(O)cc(O)c4-c4cc3ccc4O)[C@H](O)c3ccc(c(Cl)c3)Oc3cc2cc(c3O[C@@H]2O[C@H](CO)[C@@H](O)[C@H](O)[C@H]2O[C@H]2C[C@](C)(N)[C@H](O)[C@H](C)O2)Oc2ccc(cc2Cl)[C@H]1O` [VAN, Vancomycin, reference compound], the MIC in [6] (ATCC6633, read-out: MIC B. subtilis ATCC 6633) was determined as 0.24 µg/mL (≈ 0.166 µM); in series [7] (ATCC13883, read-out: MIC K. pneumoniae ATCC 13883), 0.06 µg/mL (≈ 0.0414 µM); in [8] (ATCC10876, read-out: MIC B. cereus ATCC 10876) it was 0.98 µg/mL (≈ 0.676 µM); in series [9] (ATCC9027, read-out: MIC P. aeruginosa ATCC 9027), 0.49 µg/mL (≈ 0.338 µM); in series [10] (ATCC10240, read-out: MIC M. luteus ATCC 10240), 0.12 µg/mL (≈ 0.0828 µM); in [11] (ATCC12453, read-out: MIC P. mirabilis ATCC 12453), 0.03 µg/mL (≈ 0.0207 µM). For the same compound, the MIC in series [12] (ATCC25923, read-out: MIC S. aureus ATCC 25923) is 0.98 µg/mL (≈ 0.676 µM); in series [13] (ATCC25922, read-out: MIC E. coli ATCC 25922), 0.004 µg/mL (≈ 0.00276 µM); in series [14] (ATCC12228, read-out: MIC S. epidermidis ATCC 12228) it was 0.98 µg/mL (≈ 0.676 µM).
